Laboratory results from patent US4190666A, “Anti-inflammatory 4,5-diarly-2-(substituted-thio)imidazoles and their corresponding sulfoxides and sulfones” (E. I. Du Pont de Nemours and Company, priority 1978, dated 1980).

What follows are compounds tested on established adjuvant-induced arthritis in rats (assay: Established adjuvant-induced arthritis in rats (therapeutic, paw volume)). Conditions: Rattus norvegicus, po, established arthritis, 7 daily doses, ED50% decrease from control paw volume, Tables I-III, read-out: Adjuvant Arthritis (ED50%).
Format: in vivo, Charles River Lewis male rats

| Structure (SMILES) | ED50 [mg/kg] |
| --- | --- |
| [O-][S+](CC(F)(F)F)c1nc(-c2ccccc2)c(-c2ccccc2)[nH]1 (stereo not drawn) [Example 2, 4,5-Diphenyl-2-(2,2,2-trifluoroethylsulfinyl)imidazole] | 48 |
| O=S(=O)(CC(F)(F)F)c1nc(-c2ccccc2)c(-c2ccccc2)[nH]1 [Example 3, 4,5-Diphenyl-2-(2,2,2-trifluoroethylsulfonyl)imidazole] | 12 |
| FC(F)(F)CSc1nc(-c2ccc(Cl)cc2)c(-c2ccc(Cl)cc2)[nH]1 [Example 7, 4,5-bis(4-Chlorophenyl)-2-(2,2,2-trifluoroethylthio)imidazole] | 5 |
| [O-][S+](CC(F)(F)F)c1nc(-c2ccc(Cl)cc2)c(-c2ccc(Cl)cc2)[nH]1 (stereo not drawn) [Example 8, 4,5-bis(4-chlorophenyl)-2-(2,2,2-trifluoroethylsulfinyl)imidazole] | 3 |
| O=S(=O)(CC(F)(F)F)c1nc(-c2ccc(Cl)cc2)c(-c2ccc(Cl)cc2)[nH]1 [Example 9, 4,5-bis(4-Chlorophenyl)-2-(2,2,2-trifluoroethylsulfonyl)imidazole] | 4.5 |
| CCSc1nc(-c2ccc(OC)cc2)c(-c2ccc(OC)cc2)[nH]1 [Example 10, 2-Ethylthio-4,5-bis(4-methoxyphenyl)imidazole] | 4.7 |
| C=CCSc1nc(-c2ccc(OC)cc2)c(-c2ccc(OC)cc2)[nH]1 [Example 11, 2-Allylthio-4,5-bis(4-methoxyphenyl)imidazole] | 22 |
| CC[S+]([O-])c1nc(-c2ccc(OC)cc2)c(-c2ccc(OC)cc2)[nH]1 (stereo not drawn) [Example 13, 2-Ethylsulfinyl-4,5-bis(4-methoxyphenyl)imidazole] | 10 |
| CCS(=O)(=O)c1nc(-c2ccc(OC)cc2)c(-c2ccc(OC)cc2)[nH]1 [Example 14, 2-Ethylsulfonyl-4,5-bis(4-methoxyphenyl)imidazole] | 5.2 |
| COc1ccc(-c2nc(SC)[nH]c2-c2ccc(OC)cc2)cc1 [Example 15, 4,5-bis(4-Methoxyphenyl)-2-methylthioimidazole] | 4.4 |
| COc1ccc(-c2nc(SCC(C)=O)[nH]c2-c2ccc(OC)cc2)cc1 [Example 16, 2-Acetonylthio-4,5-bis(4-methoxyphenyl)imidazole] | 9.4 |
| CSc1nc(-c2ccc(Cl)cc2)c(-c2ccc(Cl)cc2)[nH]1 [Example 26, 4,5-bis(4-chlorophenyl)-2-methylthioimidazole] | 3 |
| CCCSc1nc(-c2ccc(OC)cc2)c(-c2ccc(OC)cc2)[nH]1 [Example 27] | 9 |
| CSc1nc(-c2ccc(F)cc2)c(-c2ccc(F)cc2)[nH]1 [Example 28] | 3.5 |
| COc1ccc(-c2nc(SC(F)F)[nH]c2-c2ccc(OC)cc2)cc1 [Example 29] | 1.8 |
| FC(F)Sc1nc(-c2ccccc2)c(-c2ccccc2)[nH]1 [Example 30] | 21 |
| FC(F)Sc1nc(-c2ccc(Cl)cc2)c(-c2ccc(Cl)cc2)[nH]1 [Example 31] | 0.35 |
| Fc1ccc(-c2nc(SC(F)F)[nH]c2-c2ccc(F)cc2)cc1 [Example 32] | 0.42 |
| CSc1nc(-c2ccc(Cl)cc2)c(-c2ccc(F)cc2)[nH]1 [Example 33] | 3.8 |
| CSc1nc(-c2ccc(C(F)(F)F)cc2)c(-c2ccccc2)[nH]1 [Example 34] | 20 |
| CSc1nc(-c2ccc(F)cc2)c(-c2ccc(C(F)(F)F)cc2)[nH]1 [Example 35] | 17 |
| CSc1nc(-c2ccc(Cl)cc2)c(-c2ccc(C(F)(F)F)cc2)[nH]1 [Example 36] | 3.6 |
| CSc1nc(-c2ccc3c(c2)OCO3)c(-c2ccc3c(c2)OCO3)[nH]1 [Example 37] | 20 |
| COc1ccc(-c2nc(SC(F)(F)C(F)F)[nH]c2-c2ccc(OC)cc2)cc1 [Example 38] | 4.2 |
| Fc1ccc(-c2nc(SC(F)(F)C(F)F)[nH]c2-c2ccc(F)cc2)cc1 [Example 40] | 0.075 |
| Fc1ccc(-c2[nH]c(SC(F)(F)C(F)F)nc2-c2ccc(Cl)cc2)cc1 [Example 42] | 0.18 |

Same assay, conditions: established arthritis, oral, 7 daily doses; ED50% decrease from control paw volume; Tables I-III

| Structure (SMILES) | Adjuvant Arthritis (ED50%) [mg/kg] |
| --- | --- |
| FC(Cl)C(F)(F)Sc1nc(-c2ccccc2)c(-c2ccccc2)[nH]1 (stereo not drawn) [Example 41] | 3.9 |
